Data from patent US11697648B2, “Fused pyrimidine pyridinone compounds as JAK inhibitors” (THERAVANCE BIOPHARMA R&D IP, LLC, priority 2019, dated 2023).

target: Tyk2 (Homo sapiens (Human), UniProt P29597); assay: Biochemical Tyk2 kinase assay (LanthaScreen); conditions: not given
Summary of the method: (§1)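 GST-JAK + GFP-STAT1 peptide, HEPES pH 7.5/MgCl2/EGTA/Brij-35 buffer; cpd preincubation 1 h RT; ATP start, 1 h RT; stop with 10 mM EDTA + 2 nM Tb-anti-pSTAT1; TR-FRET 520/495. 4-parameter IC50 → pKi (Cheng-Prusoff).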

Tyk2, sequence (P29597 whole entry): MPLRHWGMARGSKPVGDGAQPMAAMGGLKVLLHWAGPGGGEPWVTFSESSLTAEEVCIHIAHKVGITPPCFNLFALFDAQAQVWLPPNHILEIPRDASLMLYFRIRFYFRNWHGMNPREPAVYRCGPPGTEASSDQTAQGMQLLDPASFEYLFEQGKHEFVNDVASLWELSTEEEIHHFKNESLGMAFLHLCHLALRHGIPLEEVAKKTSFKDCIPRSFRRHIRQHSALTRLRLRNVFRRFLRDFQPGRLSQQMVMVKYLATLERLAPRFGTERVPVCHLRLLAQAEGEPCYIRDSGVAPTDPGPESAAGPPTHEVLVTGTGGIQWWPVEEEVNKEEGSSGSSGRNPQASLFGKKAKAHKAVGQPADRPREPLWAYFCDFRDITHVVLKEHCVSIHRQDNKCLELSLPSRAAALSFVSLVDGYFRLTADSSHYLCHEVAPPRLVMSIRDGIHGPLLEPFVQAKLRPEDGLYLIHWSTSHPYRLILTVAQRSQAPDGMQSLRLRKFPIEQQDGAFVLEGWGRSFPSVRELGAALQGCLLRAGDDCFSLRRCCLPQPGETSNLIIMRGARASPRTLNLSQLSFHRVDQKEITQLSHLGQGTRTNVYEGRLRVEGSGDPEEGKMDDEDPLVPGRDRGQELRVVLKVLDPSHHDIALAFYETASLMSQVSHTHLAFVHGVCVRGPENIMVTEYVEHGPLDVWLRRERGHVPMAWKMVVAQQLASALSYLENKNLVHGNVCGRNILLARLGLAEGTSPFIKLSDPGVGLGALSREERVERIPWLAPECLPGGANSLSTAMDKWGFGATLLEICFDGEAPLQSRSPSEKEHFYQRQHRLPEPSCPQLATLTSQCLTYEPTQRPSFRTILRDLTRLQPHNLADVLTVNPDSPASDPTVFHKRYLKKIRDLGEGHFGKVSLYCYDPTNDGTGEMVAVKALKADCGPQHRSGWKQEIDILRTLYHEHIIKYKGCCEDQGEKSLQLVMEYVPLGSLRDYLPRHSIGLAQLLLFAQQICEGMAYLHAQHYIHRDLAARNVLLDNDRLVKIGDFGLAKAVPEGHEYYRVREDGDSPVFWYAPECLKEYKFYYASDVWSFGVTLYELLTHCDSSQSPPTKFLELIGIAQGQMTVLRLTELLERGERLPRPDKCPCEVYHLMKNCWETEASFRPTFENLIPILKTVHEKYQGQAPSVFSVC

Compound | Tyk 2 (pKi)
C=CC(=O)N1CC(CCn2c(=O)ccc3cnc(Nc4cccc(CN5CCN(C(=O)CSC)CC5)c4)nc32)C1 [Example 134] | E (E represents a pKi value of 7 or below (Ki of 100 nM or above))
C=CC(=O)N1CCN(CCn2c(=O)ccc3cnc(Nc4ccc(N5CCN(C(=O)CSC)CC5)cc4)nc32)CC1 [Example 150] | E (E represents a pKi value of 7 or below (Ki of 100 nM or above))
C=CC(=O)N1CCN(CCn2c(=O)ccc3cnc(Nc4ccc(N5CCN(C(C)=O)CC5)cc4)nc32)[C@@H](C)C1 [Example 155] | E (E represents a pKi value of 7 or below (Ki of 100 nM or above))
C=CC(=O)N1CCN(CCn2c(=O)ccc3cnc(Nc4ccc(N5CCN(C(=O)CCSC)CC5)cc4)nc32)[C@@H](C)C1 [Example 171] | E (E represents a pKi value of 7 or below (Ki of 100 nM or above))
C=CC(=O)N1CCN(CCn2c(=O)ccc3cnc(Nc4ccc(N5CCN(C(=O)CSC)CC5)cc4)nc32)[C@@H](C)C1 [Example 173] | E (E represents a pKi value of 7 or below (Ki of 100 nM or above))
C=CC(=O)N1CCN(CCn2c(=O)ccc3cnc(Nc4ccc(N5CCN(C(=O)N(C)C)CC5)cc4)nc32)[C@@H](C)C1 [Example 174] | E (E represents a pKi value of 7 or below (Ki of 100 nM or above))

target: JAK1 (Homo sapiens (Human), UniProt P23458); assay: Biochemical JAK1 kinase assay (LanthaScreen); conditions: not given
Summary of the method: as §1

JAK1, sequence (P23458 whole entry): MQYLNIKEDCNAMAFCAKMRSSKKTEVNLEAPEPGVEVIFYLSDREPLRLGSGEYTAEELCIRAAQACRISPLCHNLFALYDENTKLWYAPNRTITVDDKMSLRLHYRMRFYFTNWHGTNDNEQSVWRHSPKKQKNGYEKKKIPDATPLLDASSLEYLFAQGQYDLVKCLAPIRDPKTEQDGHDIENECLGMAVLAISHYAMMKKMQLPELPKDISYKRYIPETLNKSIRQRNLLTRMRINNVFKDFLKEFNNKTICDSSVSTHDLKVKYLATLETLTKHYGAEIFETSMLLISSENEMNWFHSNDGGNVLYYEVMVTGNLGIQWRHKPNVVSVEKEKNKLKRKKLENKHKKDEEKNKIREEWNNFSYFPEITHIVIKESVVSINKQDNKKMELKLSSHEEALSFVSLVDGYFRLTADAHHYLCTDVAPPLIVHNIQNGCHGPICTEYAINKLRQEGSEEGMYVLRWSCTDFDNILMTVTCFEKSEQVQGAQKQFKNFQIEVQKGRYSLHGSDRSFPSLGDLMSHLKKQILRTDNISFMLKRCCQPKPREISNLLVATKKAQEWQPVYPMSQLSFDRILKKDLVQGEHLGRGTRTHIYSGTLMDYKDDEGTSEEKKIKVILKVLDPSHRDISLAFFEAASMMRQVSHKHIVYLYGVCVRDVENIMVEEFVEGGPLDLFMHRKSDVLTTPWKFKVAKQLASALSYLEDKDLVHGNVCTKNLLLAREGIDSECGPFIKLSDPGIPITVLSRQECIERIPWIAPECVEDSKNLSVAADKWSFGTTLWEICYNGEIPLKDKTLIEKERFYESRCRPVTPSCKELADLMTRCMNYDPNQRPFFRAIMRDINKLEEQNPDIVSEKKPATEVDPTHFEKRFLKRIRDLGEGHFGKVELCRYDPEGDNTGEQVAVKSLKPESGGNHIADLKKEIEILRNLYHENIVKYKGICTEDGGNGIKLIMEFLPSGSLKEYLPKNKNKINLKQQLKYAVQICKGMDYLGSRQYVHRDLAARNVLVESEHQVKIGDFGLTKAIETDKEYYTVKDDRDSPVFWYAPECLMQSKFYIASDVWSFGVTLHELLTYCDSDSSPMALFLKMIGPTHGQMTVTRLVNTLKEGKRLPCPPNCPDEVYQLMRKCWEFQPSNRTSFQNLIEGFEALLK

Compound | JAK 1 (pKi)
C=CC(=O)N1CC(CCn2c(=O)ccc3cnc(Nc4cccc(CN5CCN(C(=O)CSC)CC5)c4)nc32)C1 [Example 134] | E (E represents a pKi value of 7 or below (Ki of 100 nM or above))
C=CC(=O)N1CCN(CCn2c(=O)ccc3cnc(Nc4ccc(N5CCN(C(=O)CSC)CC5)cc4)nc32)CC1 [Example 150] | E (E represents a pKi value of 7 or below (Ki of 100 nM or above))
C=CC(=O)N1CCN(CCn2c(=O)ccc3cnc(Nc4ccc(N5CCN(C(C)=O)CC5)cc4)nc32)[C@@H](C)C1 [Example 155] | E (E represents a pKi value of 7 or below (Ki of 100 nM or above))
C=CC(=O)N1CCN(CCn2c(=O)ccc3cnc(Nc4ccc(N5CCN(C(=O)CCSC)CC5)cc4)nc32)[C@@H](C)C1 [Example 171] | E (E represents a pKi value of 7 or below (Ki of 100 nM or above))
C=CC(=O)N1CCN(CCn2c(=O)ccc3cnc(Nc4ccc(N5CCN(C(=O)CSC)CC5)cc4)nc32)[C@@H](C)C1 [Example 173] | E (E represents a pKi value of 7 or below (Ki of 100 nM or above))
C=CC(=O)N1CCN(CCn2c(=O)ccc3cnc(Nc4ccc(N5CCN(C(=O)N(C)C)CC5)cc4)nc32)[C@@H](C)C1 [Example 174] | E (E represents a pKi value of 7 or below (Ki of 100 nM or above))

tested on: Caco-2 cell monolayers; assay: Caco-2 permeation assay; format: in vitro ADME; conditions: 5 μM, A-B direction, with Verapamil (25 μM)
Summary of the method: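 Compounds tested at 5 μM in duplicate across Caco-2 monolayers, apical-to-basolateral, with 25 μM verapamil to block P-gp, at 37° C., 5% CO2. Apical and basal samples taken at 0 and 120 min, analysed by LC-MS/MS; Papp (cm/sec) calculated as dQ/(dt×Area×concentration).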

Compound | Caco Kp
C=CC(=O)N1CC(CCn2c(=O)ccc3cnc(Nc4cccc(CN5CCN(C(=O)CSC)CC5)c4)nc32)C1 [Example 134] | A (A represents a value below 5×10^−6 cm/sec)
C=CC(=O)N1CCN(CCn2c(=O)ccc3cnc(Nc4ccc(N5CCN(C(=O)CSC)CC5)cc4)nc32)CC1 [Example 150] | A (A represents a value below 5×10^−6 cm/sec)
C=CC(=O)N1CCN(CCn2c(=O)ccc3cnc(Nc4ccc(N5CCN(C(C)=O)CC5)cc4)nc32)[C@@H](C)C1 [Example 155] | A (A represents a value below 5×10^−6 cm/sec)
C=CC(=O)N1CCN(CCn2c(=O)ccc3cnc(Nc4ccc(N5CCN(C(=O)CCSC)CC5)cc4)nc32)[C@@H](C)C1 [Example 171] | B (B represents a value between 5×10^−6 and 10×10^−6 cm/sec)
C=CC(=O)N1CCN(CCn2c(=O)ccc3cnc(Nc4ccc(N5CCN(C(=O)CSC)CC5)cc4)nc32)[C@@H](C)C1 [Example 173] | A (A represents a value below 5×10^−6 cm/sec)
C=CC(=O)N1CCN(CCn2c(=O)ccc3cnc(Nc4ccc(N5CCN(C(=O)N(C)C)CC5)cc4)nc32)[C@@H](C)C1 [Example 174] | B (B represents a value between 5×10^−6 and 10×10^−6 cm/sec)

target: JAK2 (Homo sapiens (Human), UniProt O60674); assay: Biochemical JAK2 kinase assay (LanthaScreen); conditions: not given
Summary of the method: as §1

JAK2, sequence (O60674 whole entry): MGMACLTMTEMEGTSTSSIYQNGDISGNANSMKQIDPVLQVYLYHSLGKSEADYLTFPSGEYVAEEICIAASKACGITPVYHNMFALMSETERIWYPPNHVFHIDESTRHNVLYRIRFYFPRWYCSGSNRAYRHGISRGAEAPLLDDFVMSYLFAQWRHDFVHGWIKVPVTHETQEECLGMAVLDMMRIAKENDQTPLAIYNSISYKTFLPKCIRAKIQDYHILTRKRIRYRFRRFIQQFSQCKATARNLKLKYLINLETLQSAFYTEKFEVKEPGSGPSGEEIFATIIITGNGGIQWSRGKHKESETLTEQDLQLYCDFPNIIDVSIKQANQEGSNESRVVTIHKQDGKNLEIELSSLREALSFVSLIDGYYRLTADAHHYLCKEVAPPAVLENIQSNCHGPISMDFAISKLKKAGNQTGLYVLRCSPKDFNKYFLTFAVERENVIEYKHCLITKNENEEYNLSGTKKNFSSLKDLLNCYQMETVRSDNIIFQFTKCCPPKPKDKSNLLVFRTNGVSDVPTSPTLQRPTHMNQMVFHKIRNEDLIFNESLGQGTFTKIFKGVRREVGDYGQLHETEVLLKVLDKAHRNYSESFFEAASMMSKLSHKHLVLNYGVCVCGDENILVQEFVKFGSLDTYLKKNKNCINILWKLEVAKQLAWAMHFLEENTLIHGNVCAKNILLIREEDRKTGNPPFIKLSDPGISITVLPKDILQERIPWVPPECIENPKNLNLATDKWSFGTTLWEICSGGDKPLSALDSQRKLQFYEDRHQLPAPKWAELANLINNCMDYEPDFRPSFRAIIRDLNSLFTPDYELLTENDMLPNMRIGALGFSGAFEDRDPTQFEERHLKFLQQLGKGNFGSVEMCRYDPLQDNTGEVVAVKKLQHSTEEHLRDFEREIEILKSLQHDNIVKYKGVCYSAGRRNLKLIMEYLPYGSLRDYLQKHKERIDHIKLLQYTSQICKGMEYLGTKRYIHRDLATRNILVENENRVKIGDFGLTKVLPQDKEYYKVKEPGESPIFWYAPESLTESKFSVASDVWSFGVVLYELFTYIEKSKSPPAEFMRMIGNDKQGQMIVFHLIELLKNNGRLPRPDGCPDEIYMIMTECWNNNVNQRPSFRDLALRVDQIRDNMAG

Compound | JAK 2 (pKi)
C=CC(=O)N1CC(CCn2c(=O)ccc3cnc(Nc4cccc(CN5CCN(C(=O)CSC)CC5)c4)nc32)C1 [Example 134] | E (E represents a pKi value of 7 or below (Ki of 100 nM or above))
C=CC(=O)N1CCN(CCn2c(=O)ccc3cnc(Nc4ccc(N5CCN(C(=O)CSC)CC5)cc4)nc32)CC1 [Example 150] | E (E represents a pKi value of 7 or below (Ki of 100 nM or above))
C=CC(=O)N1CCN(CCn2c(=O)ccc3cnc(Nc4ccc(N5CCN(C(C)=O)CC5)cc4)nc32)[C@@H](C)C1 [Example 155] | E (E represents a pKi value of 7 or below (Ki of 100 nM or above))
C=CC(=O)N1CCN(CCn2c(=O)ccc3cnc(Nc4ccc(N5CCN(C(=O)CCSC)CC5)cc4)nc32)[C@@H](C)C1 [Example 171] | E (E represents a pKi value of 7 or below (Ki of 100 nM or above))
C=CC(=O)N1CCN(CCn2c(=O)ccc3cnc(Nc4ccc(N5CCN(C(=O)CSC)CC5)cc4)nc32)[C@@H](C)C1 [Example 173] | E (E represents a pKi value of 7 or below (Ki of 100 nM or above))
C=CC(=O)N1CCN(CCn2c(=O)ccc3cnc(Nc4ccc(N5CCN(C(=O)N(C)C)CC5)cc4)nc32)[C@@H](C)C1 [Example 174] | E (E represents a pKi value of 7 or below (Ki of 100 nM or above))

tested on: not listed separately; assay: Colon and plasma mouse pharmacokinetics; format: in vivo; conditions: mouse, colon tissue / plasma; male Balb/c mice, 10 mg/kg PO; ratio of the colon AUC to the plasma AUC
Description: Assay 5: Colon and Plasma Mouse Pharmacokinetics
To 6 male Balb/c mice was administered 10 mg/kg of compound in 1% HPMC+0.1% Tween-80 by PO administration. At 0.5, 2 and 6 hours after dose administration, animals were anesthetized, and terminal blood samples were collected by cardiac puncture, followed by collection of colon contents and colon tissue.
Blood samples were collected into K2EDTA and stored on wet ice until processed to plasma by centrifugation (12000 rpm at 4° C.). Plasma samples were transferred to cluster tubes and placed on dry ice prior to freezer storage. The colon contents from each animal were collected at each terminal blood collection time point. The colon tissues were flushed with saline and patted dry. The colon and colon content tissues were homogenized using sterile water containing 0.1% formic acid 9:1 (water:tissue, v/w). The homogenized tissues and colon contents were transferred to cluster tubes and placed on dry ice prior to freezer storage. All samples were analyzed using LC/MS/MS against analytical standards.
The composite pharmacokinetic parameters of the compounds were determined by non-compartmental analysis using Phoenix WinNonlin Version 6 (Certara, St. Louis, Mo.) and using mean values from 2 animals/time point. For plasma concentrations below the quantification limit (BQL), the lowest concentration measurable or the BLOQ (below limit of quantification) was used.
A colon to plasma ratio was determined as the ratio of the colon AUC to the plasma AUC.

Compound | Kp
C=CC(=O)N1CC(CCn2c(=O)ccc3cnc(Nc4cccc(CN5CCN(C(=O)CSC)CC5)c4)nc32)C1 [Example 134] | > 100
C=CC(=O)N1CCN(CCn2c(=O)ccc3cnc(Nc4ccc(N5CCN(C(=O)CSC)CC5)cc4)nc32)CC1 [Example 150] | > 100
C=CC(=O)N1CCN(CCn2c(=O)ccc3cnc(Nc4ccc(N5CCN(C(C)=O)CC5)cc4)nc32)[C@@H](C)C1 [Example 155] | > 1000
C=CC(=O)N1CCN(CCn2c(=O)ccc3cnc(Nc4ccc(N5CCN(C(=O)CCSC)CC5)cc4)nc32)[C@@H](C)C1 [Example 171] | > 1000
C=CC(=O)N1CCN(CCn2c(=O)ccc3cnc(Nc4ccc(N5CCN(C(=O)CSC)CC5)cc4)nc32)[C@@H](C)C1 [Example 173] | > 100
C=CC(=O)N1CCN(CCn2c(=O)ccc3cnc(Nc4ccc(N5CCN(C(=O)N(C)C)CC5)cc4)nc32)[C@@H](C)C1 [Example 174] | > 14

target: JAK3 (Homo sapiens (Human), UniProt P52333); assay: Biochemical JAK3 kinase assay (LanthaScreen); conditions: not given
Summary of the method: as §1

JAK3, sequence (P52333 whole entry): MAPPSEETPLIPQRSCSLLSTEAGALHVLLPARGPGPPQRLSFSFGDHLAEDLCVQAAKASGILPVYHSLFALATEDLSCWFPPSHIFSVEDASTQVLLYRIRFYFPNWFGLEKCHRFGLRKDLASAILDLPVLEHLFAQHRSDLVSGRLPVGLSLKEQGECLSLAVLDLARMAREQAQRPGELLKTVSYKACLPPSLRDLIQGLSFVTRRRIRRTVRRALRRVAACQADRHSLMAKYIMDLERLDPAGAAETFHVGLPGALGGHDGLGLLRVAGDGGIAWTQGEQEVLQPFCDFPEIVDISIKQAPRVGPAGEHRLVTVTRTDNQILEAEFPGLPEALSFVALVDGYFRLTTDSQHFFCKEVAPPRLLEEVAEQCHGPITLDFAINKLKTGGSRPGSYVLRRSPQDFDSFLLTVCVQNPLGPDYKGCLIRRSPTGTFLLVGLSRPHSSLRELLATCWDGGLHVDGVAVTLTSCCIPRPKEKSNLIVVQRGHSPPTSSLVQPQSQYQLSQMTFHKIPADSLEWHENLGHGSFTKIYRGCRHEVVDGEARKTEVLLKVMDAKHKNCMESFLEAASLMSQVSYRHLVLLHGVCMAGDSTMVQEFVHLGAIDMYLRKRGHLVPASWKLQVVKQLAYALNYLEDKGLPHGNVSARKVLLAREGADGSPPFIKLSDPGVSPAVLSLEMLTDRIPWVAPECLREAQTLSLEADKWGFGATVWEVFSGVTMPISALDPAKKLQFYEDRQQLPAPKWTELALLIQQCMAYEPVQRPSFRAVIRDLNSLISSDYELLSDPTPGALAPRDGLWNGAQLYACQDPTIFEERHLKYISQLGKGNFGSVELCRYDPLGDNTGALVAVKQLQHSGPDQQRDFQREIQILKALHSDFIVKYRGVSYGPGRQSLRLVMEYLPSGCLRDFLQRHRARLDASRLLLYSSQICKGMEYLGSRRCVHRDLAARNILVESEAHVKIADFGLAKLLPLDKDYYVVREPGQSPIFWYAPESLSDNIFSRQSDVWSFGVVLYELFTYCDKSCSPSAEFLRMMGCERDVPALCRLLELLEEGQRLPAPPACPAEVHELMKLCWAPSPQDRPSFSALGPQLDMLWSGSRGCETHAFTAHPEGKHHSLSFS

Compound | JAK 3 (pKi)
C=CC(=O)N1CC(CCn2c(=O)ccc3cnc(Nc4cccc(CN5CCN(C(=O)CSC)CC5)c4)nc32)C1 [Example 134] | A (A represents a pKi value≥10 (Ki≤0.1 nM))
C=CC(=O)N1CCN(CCn2c(=O)ccc3cnc(Nc4ccc(N5CCN(C(=O)CSC)CC5)cc4)nc32)CC1 [Example 150] | A (A represents a pKi value≥10 (Ki≤0.1 nM))
C=CC(=O)N1CCN(CCn2c(=O)ccc3cnc(Nc4ccc(N5CCN(C(C)=O)CC5)cc4)nc32)[C@@H](C)C1 [Example 155] | B (B represents pKi value between 9 and 10 (Ki between 1 nM and 0.1 nM))
C=CC(=O)N1CCN(CCn2c(=O)ccc3cnc(Nc4ccc(N5CCN(C(=O)CCSC)CC5)cc4)nc32)[C@@H](C)C1 [Example 171] | A (A represents a pKi value≥10 (Ki≤0.1 nM))
C=CC(=O)N1CCN(CCn2c(=O)ccc3cnc(Nc4ccc(N5CCN(C(=O)CSC)CC5)cc4)nc32)[C@@H](C)C1 [Example 173] | B (B represents pKi value between 9 and 10 (Ki between 1 nM and 0.1 nM))
C=CC(=O)N1CCN(CCn2c(=O)ccc3cnc(Nc4ccc(N5CCN(C(=O)N(C)C)CC5)cc4)nc32)[C@@H](C)C1 [Example 174] | B (B represents pKi value between 9 and 10 (Ki between 1 nM and 0.1 nM))

same assay, conditions: selectivity JAK3 over JAK1, difference of pKi

Compound | JAK3 (pKi)-JAK1 (pKi)
C=CC(=O)N1CC(CCn2c(=O)ccc3cnc(Nc4cccc(CN5CCN(C(=O)CSC)CC5)c4)nc32)C1 [Example 134] | A (A represents a value of 3 or above)
C=CC(=O)N1CCN(CCn2c(=O)ccc3cnc(Nc4ccc(N5CCN(C(=O)CSC)CC5)cc4)nc32)CC1 [Example 150] | A (A represents a value of 3 or above)
C=CC(=O)N1CCN(CCn2c(=O)ccc3cnc(Nc4ccc(N5CCN(C(C)=O)CC5)cc4)nc32)[C@@H](C)C1 [Example 155] | A (A represents a value of 3 or above)
C=CC(=O)N1CCN(CCn2c(=O)ccc3cnc(Nc4ccc(N5CCN(C(=O)CCSC)CC5)cc4)nc32)[C@@H](C)C1 [Example 171] | A (A represents a value of 3 or above)
C=CC(=O)N1CCN(CCn2c(=O)ccc3cnc(Nc4ccc(N5CCN(C(=O)CSC)CC5)cc4)nc32)[C@@H](C)C1 [Example 173] | A (A represents a value of 3 or above)
C=CC(=O)N1CCN(CCn2c(=O)ccc3cnc(Nc4ccc(N5CCN(C(=O)N(C)C)CC5)cc4)nc32)[C@@H](C)C1 [Example 174] | A (A represents a value of 3 or above)

tested on: IL-2 stimulated STAT5 phosphorylation in Tall-1 human T cell line (JAK3); assay: Cellular JAK3 potency assay: inhibition of IL-2 stimulated pSTAT5 in Tall-1 T cells; format: cell-based; conditions: IL-2 stimulated pSTAT5, Tall-1 T cells
Summary of the method: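 Tall-1 cells, 45,000 per well, preincubated 1 hour with compound at 37 °C, then stimulated 30 minutes with IL-2 at 300 ng/ml final. pSTAT5 (Tyr694/699) in lysates quantified by AlphaLISA SureFire Ultra. pIC50 derived from inhibition curves, given as mean with SD.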

Compound | Tall-1 (pIC50)
C=CC(=O)N1CC(CCn2c(=O)ccc3cnc(Nc4cccc(CN5CCN(C(=O)CSC)CC5)c4)nc32)C1 [Example 134] | B (B represents a pC50 value between 6.7 (included) and 7.5 (IC50 between 200 nM and 32 nM))
C=CC(=O)N1CCN(CCn2c(=O)ccc3cnc(Nc4ccc(N5CCN(C(=O)CSC)CC5)cc4)nc32)CC1 [Example 150] | B (B represents a pC50 value between 6.7 (included) and 7.5 (IC50 between 200 nM and 32 nM))
C=CC(=O)N1CCN(CCn2c(=O)ccc3cnc(Nc4ccc(N5CCN(C(C)=O)CC5)cc4)nc32)[C@@H](C)C1 [Example 155] | B (B represents a pC50 value between 6.7 (included) and 7.5 (IC50 between 200 nM and 32 nM))
C=CC(=O)N1CCN(CCn2c(=O)ccc3cnc(Nc4ccc(N5CCN(C(=O)CCSC)CC5)cc4)nc32)[C@@H](C)C1 [Example 171] | A (A represents a pIC50 value≥7.5 (IC50≤32 nM))
C=CC(=O)N1CCN(CCn2c(=O)ccc3cnc(Nc4ccc(N5CCN(C(=O)CSC)CC5)cc4)nc32)[C@@H](C)C1 [Example 173] | B (B represents a pC50 value between 6.7 (included) and 7.5 (IC50 between 200 nM and 32 nM))
C=CC(=O)N1CCN(CCn2c(=O)ccc3cnc(Nc4ccc(N5CCN(C(=O)N(C)C)CC5)cc4)nc32)[C@@H](C)C1 [Example 174] | B (B represents a pC50 value between 6.7 (included) and 7.5 (IC50 between 200 nM and 32 nM))
